Like-named read-outs stand apart in the source and are kept apart here.
What was measured:
MCR-1 = target: T1, MCR-1 (Homo sapiens, UniProt Q01726); experiment: Melanocortin receptor binding assay, competition with 125I-HP 467, HEK 293 cells expressing hMCR-1; conditions: for IC50: read-out: MC-1 IC50
T1 construct: expressed in transfected cells; host or cells: HEK 293
In short: (§1)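 Test compounds compete on intact HEK 293 cells carrying hMCR-1 (2×10^4 per tube) or hMCR-4 (4×10^3 per tube), suspended in PBS, 10% calf serum, 1 mM CaCl2.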

MCR-4 = target: T2, MCR-4 (Homo sapiens, UniProt P32245); experiment: Melanocortin receptor binding assay, competition with 125I-HP 467, HEK 293 cells expressing hMCR-4; conditions: read-out: MC-4 IC50
T2 construct: expressed in transfected cells; host or cells: HEK 293
T2 sequence (P32245 whole entry): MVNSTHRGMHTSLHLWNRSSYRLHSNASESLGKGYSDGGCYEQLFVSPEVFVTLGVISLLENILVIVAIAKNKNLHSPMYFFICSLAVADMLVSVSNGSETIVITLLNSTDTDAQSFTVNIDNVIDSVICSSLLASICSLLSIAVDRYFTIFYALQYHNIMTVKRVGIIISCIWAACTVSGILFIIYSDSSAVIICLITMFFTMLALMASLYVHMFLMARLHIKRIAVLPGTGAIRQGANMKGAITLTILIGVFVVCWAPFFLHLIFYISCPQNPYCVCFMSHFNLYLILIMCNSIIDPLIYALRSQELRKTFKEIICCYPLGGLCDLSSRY
In short: as §1

[1] = TRG 2408 and TRG 2409 libraries, inhibition of 125I-HP 467 binding
[2] = competition with 125I-HP 467, HEK 293 cells expressing MCR-1
[3] = competition with 125I-HP 467, HEK 293 cells expressing MCR-4

T1 sequence (Q01726 whole entry): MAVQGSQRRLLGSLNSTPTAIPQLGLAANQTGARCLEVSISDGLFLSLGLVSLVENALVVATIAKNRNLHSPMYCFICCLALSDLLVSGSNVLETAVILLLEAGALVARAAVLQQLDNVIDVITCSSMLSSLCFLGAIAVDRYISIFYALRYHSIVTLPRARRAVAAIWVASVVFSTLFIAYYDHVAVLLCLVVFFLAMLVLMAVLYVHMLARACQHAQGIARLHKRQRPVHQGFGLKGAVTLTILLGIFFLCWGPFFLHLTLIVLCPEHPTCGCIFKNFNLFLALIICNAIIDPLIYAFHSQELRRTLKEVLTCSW

Structure (SMILES)	IC50 (MCR-1; [1])	IC50 (MCR-4; [1])	IC50 (MCR-1; [2])	IC50 (MCR-4; [3])	effectiveness as MC receptor ligand (MCR-1; binding to MC receptors, Table 1)
CCNc1ccc(C2C(CNC3CCCCC3)c3ccccc3CN2CCCC(CN)NCCN)cc1 (centres unmarked) [TRG 2408-63]	690 nM	18700 nM			
CCNc1ccc(C2C(CNC3CCCCC3)c3ccccc3CN2CCCC(CN)NCCNC)cc1 (centres unmarked) [TRG 2408-64]	2670 nM	25000 nM			
CNC(CN)CCCN1Cc2ccccc2C(CNC2CCCCC2)C1c1ccc(Cl)cc1Cl (centres unmarked) [TRG 2408-70]	1460 nM	2500 nM			
NCC(N)CCCN1Cc2ccccc2C(CNC2CCCCC2)C1c1ccc(Cl)cc1Cl (centres unmarked) [TRG 2408-71]	1190 nM	3030 nM			
NC[C@H](CCCN1Cc2ccccc2C(CNC2CCCCC2)C1c1ccc(Cl)cc1Cl)NCCc1ccccc1 (some centres unmarked) [TRG 2408-72]	1940 nM	5870 nM			
NCCNC(CN)CCCN1Cc2ccccc2C(CNC2CCCCC2)C1c1ccc(Cl)cc1Cl (centres unmarked) [TRG 2408-73]	1080 nM	4050 nM			
CNCCNC(CN)CCCN1Cc2ccccc2C(CNC2CCCCC2)C1c1ccc(Cl)cc1Cl (centres unmarked) [TRG 2408-74]	1560 nM	4280 nM			
CNC(CN)CCCN1Cc2ccccc2C(CNC2CCCCC2)C1c1ccc(-c2ccccc2)cc1 (centres unmarked) [TRG 2408-80]	2180 nM	12200 nM			
NCC(N)CCCN1Cc2ccccc2C(CNC2CCCCC2)C1c1ccc(-c2ccccc2)cc1 (centres unmarked) [TRG 2408-81]	4410 nM	18000 nM			
NCC(CCCN1Cc2ccccc2C(CNC2CCCCC2)C1c1ccc(-c2ccccc2)cc1)NCCc1ccccc1 (centres unmarked) [TRG 2408-82]	10200 nM	16400 nM			
NCCNC(CN)CCCN1Cc2ccccc2C(CNC2CCCCC2)C1c1ccc(-c2ccccc2)cc1 (centres unmarked) [TRG 2408-83]	1770 nM	11100 nM			
CNCCNC(CN)CCCN1Cc2ccccc2C(CNC2CCCCC2)C1c1ccc(-c2ccccc2)cc1 (centres unmarked) [TRG 2408-84]	2500 nM	15400 nM			
CCNc1ccc(C2C(CNCc3ccccc3OC)c3ccccc3CN2CCC(CN)NCCN)cc1 (centres unmarked) [TRG 2408-89]	1820 nM	21700 nM			
CCNc1ccc(C2C(CNC3CCCCC3)c3ccccc3CN2CC[C@@H](CN)NC)cc1 (some centres unmarked) [TRG 2408-90]	5900 nM	25200 nM			
CCNc1ccc(C2C(CNC3CCCCC3)c3ccccc3CN2CCC(N)CN)cc1 (centres unmarked) [TRG 2408-91]	9940 nM	28100 nM			
CCNc1ccc(C2C(CNC3CCCCC3)c3ccccc3CN2CCC(CN)NCCc2ccccc2)cc1 (centres unmarked) [TRG 2408-92]	4510 nM	1540 nM			
CCNc1ccc(C2C(CNC3CCCCC3)c3ccccc3CN2CCC(CN)NCCN)cc1 (centres unmarked) [TRG 2408-93]	4010 nM	16300 nM			
CCNc1ccc(C2C(CNC3CCCCC3)c3ccccc3CN2CCC(CN)NCCNC)cc1 (centres unmarked) [TRG 2408-94]	3890 nM	27100 nM			
CNC(CN)CCN1Cc2ccccc2C(CNC2CCCCC2)C1c1ccc(Cl)cc1Cl (centres unmarked) [TRG 2408-100]	6980 nM	6100 nM			
NCC(N)CCN1Cc2ccccc2C(CNC2CCCCC2)C1c1ccc(Cl)cc1Cl (centres unmarked) [TRG 2408-101]	7890 nM	5680 nM			
NCCNC(CN)CCN1Cc2ccccc2C(CNC2CCCCC2)C1c1ccc(Cl)cc1Cl (centres unmarked) [TRG 2408-103]	5410 nM	8800 nM			
CNCCNC(CN)CCN1Cc2ccccc2C(CNC2CCCCC2)C1c1ccc(Cl)cc1Cl (centres unmarked) [TRG 2408-104]	5650 nM	9060 nM			
CNC(CN)CCN1Cc2ccccc2C(CNC2CCCCC2)C1c1ccc(-c2ccccc2)cc1 (centres unmarked) [TRG 2408-110]	5370 nM	9010 nM			
NCC(CCN1Cc2ccccc2C(CNC2CCCCC2)C1c1ccc(-c2ccccc2)cc1)NCCc1ccccc1 (centres unmarked) [TRG 2408-112]	8790 nM	10400 nM			
NCCNC(CN)CCN1Cc2ccccc2C(CNC2CCCCC2)C1c1ccc(-c2ccccc2)cc1 (centres unmarked) [TRG 2408-113]	3780 nM	12700 nM			
CNC(CN)CCCCN1Cc2ccccc2C(CNC2CCCCC2)C1c1ccc(NCc2ccccc2)cc1 (centres unmarked) [TRG 2409-13]			1150 nM	17400 nM	
CNC(CN)CCCCN1Cc2ccccc2C(CNC2CCCCC2)C1c1ccc(NCC2CCCCC2)cc1 (centres unmarked) [TRG 2409-15]			1650 nM	16200 nM	

Structure (SMILES)	IC50 (MCR-1; [1])	IC50 (MCR-4; [1])	IC50 (MCR-1; [2])	IC50 (MCR-4; [3])	effectiveness as MC receptor ligand (MCR-1; binding to MC receptors, Table 1)
CNC(CN)CCCCN1Cc2ccccc2C(CNC2CCCCC2)C1c1ccc(NCC(C)C)cc1 (centres unmarked) [TRG 2409-16]			950 nM	21000 nM	
CNC(CN)CCCCN1Cc2ccccc2C(CNC2CCCCC2)C1c1ccc(NCCOC)cc1 (centres unmarked) [TRG 2409-17]			2720 nM	27500 nM	
CNC(CN)CCCCN1Cc2ccccc2C(CNC2CCCCC2)C1c1ccc(NCc2ccc(OC)cc2)cc1 (centres unmarked) [TRG 2409-18]			7510 nM	16900 nM	
CNC(CN)CCCCN1Cc2ccccc2C(CNC2CCCCC2)C1c1ccc(NCCc2ccccc2)cc1 (centres unmarked) [TRG 2409-19]			2080 nM	15500 nM	
CCCNc1ccc(C2C(CNC3CCCCC3)c3ccccc3CN2CCCCC(CN)NC)cc1 (centres unmarked) [TRG 2409-20]			880 nM	19800 nM	
CNC(CN)CCCCN1Cc2ccccc2C(CNC2CCCCC2)C1c1ccc(NCCc2ccc(OC)cc2)cc1 (centres unmarked) [TRG 2409-21]			2630 nM	14700 nM	
CNC(CN)CCCCN1Cc2ccccc2C(CNC2CCCCC2)C1c1ccc(NCCC2CC3CCC2C3)cc1 (centres unmarked) [TRG 2409-22]			1530 nM	12300 nM	
CNC(CN)CCCCN1Cc2ccccc2C(CNC2CCCCC2)C1c1ccc(NCCc2ccc(Cl)c(Cl)c2)cc1 (centres unmarked) [TRG 2409-23]			4770 nM	19600 nM	
CNC(CN)CCCCN1Cc2ccccc2C(CNC2CCCCC2)C1c1ccc(NCc2ccc(Cl)cc2)cc1 (centres unmarked) [TRG 2409-24]			3950 nM	12200 nM	
CCCCNc1ccc(C2C(CN)c3ccccc3CN2CCCC(CN)NCCc2ccccc2)cc1 (centres unmarked) [TRG 2409-221]			80 nM	850 nM	
CCCCNc1ccc(C2C(CN)c3ccccc3CN2CCCC(CN)NCCc2ccc(OC)cc2)cc1 (centres unmarked) [TRG 2409-223]			100 nM	630 nM	
CCCCNc1ccc(C2C(CN)c3ccccc3CN2CCCC(CN)NCc2ccccc2)cc1 (centres unmarked) [TRG 2409-224]			120 nM	1320 nM	
CCCCNc1ccc(C2C(CN)c3ccccc3CN2CCCC(CN)NCc2ccc(Cl)cc2)cc1 (centres unmarked) [TRG 2409-225]			120 nM	1120 nM	
NCC(N)CCCCN1Cc2ccccc2C(CNCCc2ccccc2)C1c1ccc(-c2ccccc2)cc1 (centres unmarked) [TRG 2411-1]			600 nM	1220 nM	
NCC(CCCCN1Cc2ccccc2C(CNCCc2ccccc2)C1c1ccc(-c2ccccc2)cc1)N1CCCC1 (centres unmarked) [TRG 2411-9]			130 nM	1270 nM	
CCCCNC(CN)CCCCN1Cc2ccccc2C(CNCCc2ccccc2)C1c1ccc(-c2ccccc2)cc1 (centres unmarked) [TRG 2411-11]			830 nM	1800 nM	
CCCCNC(CN)CCCCN1Cc2ccccc2C(CNC2CCCCC2)C1c1ccc(-c2ccccc2)cc1 (centres unmarked) [TRG 2411-20]			610 nM	770 nM	
NCC(CCCCN1Cc2ccccc2C(CNC2CCCCC2)C1c1ccc(-c2ccccc2)cc1)NCC1CCCCC1 (centres unmarked) [TRG 2411-21]			270 nM	1010 nM	
NCC(CCCCN1Cc2ccccc2C(CNC2CCCCC2)C1c1ccc(-c2ccccc2)cc1)NCc1ccccc1 (centres unmarked) [TRG 2411-22]			420 nM	1730 nM	
CNCCNC(CN)CCCCN1Cc2ccccc2C(CN)C1c1ccc(-c2ccccc2)cc1 (centres unmarked) [TRG 2411-26]			90 nM	6170 nM	particularly effective MC receptor ligands
NCC(CCCCN1Cc2ccccc2C(CN)C1c1ccc(-c2ccccc2)cc1)NCCO (centres unmarked) [TRG 2411-29]			300 nM	1420 nM	
CNC(CNC(CN)CCCCN1Cc2ccccc2C(CN)C1c1ccc(-c2ccccc2)cc1)Cc1ccccc1 (centres unmarked) [TRG 2411-30]			300 nM	1330 nM	
CCCCNC(CN)CCCCN1Cc2ccccc2C(CN)C1c1ccc(-c2ccccc2)cc1 (centres unmarked) [TRG 2411-33]			390 nM	1730 nM	
CCCCNC(CN)CCCCN1Cc2ccccc2C(CNCCc2ccccc2)C1c1ccc(NCC)cc1 (centres unmarked) [TRG 2411-38]			90 nM	1330 nM	
CCNc1ccc(C2C(CNCCc3ccccc3)c3ccccc3CN2CCCCC(CN)NCCc2ccccc2)cc1 (centres unmarked) [TRG 2411-40]			190 nM	1000 nM	
CCNc1ccc(C2C(CNCCc3ccccc3)c3ccccc3CN2CCCC[C@@H](CN)NCCc2ccc(OC)cc2)cc1 (some centres unmarked) [TRG 2411-42]			320 nM	1560 nM	

From patent US6608082B1, “Treatment of erectile dysfunction using isoquinoline compound melanocortin receptor ligands” (Lion Bioscience AG, priority 1998, dated 2003)
